Assay results: patent US9096591B2, “Tetracyclic compounds” (Medivation Technologies, Inc., priority 2007, dated 2015)
Where two headings read alike, the source gives them in different places.

Key:
[1] = molecular target: T1, human recombinant histamine H1 receptor (Homo sapiens, UniProt P35367); assay: Histamine H1 radioligand binding ([3H]Pyrilamine)
T1 construct: expressed in transfected cells; host or cells: CHO cells
Outline: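 CHO-expressed receptor in modified Tris-HCl buffer (50 mM, pH 7.4; 2 mM MgCl2, 100 mM NaCl, 250 mM sucrose); bound ligand measured after filtration and washing.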

[2] = molecular target: T2, human recombinant adrenergic α1D receptor (Homo sapiens, UniProt P25100); assay: Adrenergic α1D radioligand binding ([3H]Prozosin); set-up: Inhibition of ligand binding, Adren. alpha1D: concentration or dose not given beside the values; conditions: percent inhibition of specific binding
T2 construct: expressed in transfected cells; host or cells: HEK-293 cells
T2 sequence (P25100 1-572): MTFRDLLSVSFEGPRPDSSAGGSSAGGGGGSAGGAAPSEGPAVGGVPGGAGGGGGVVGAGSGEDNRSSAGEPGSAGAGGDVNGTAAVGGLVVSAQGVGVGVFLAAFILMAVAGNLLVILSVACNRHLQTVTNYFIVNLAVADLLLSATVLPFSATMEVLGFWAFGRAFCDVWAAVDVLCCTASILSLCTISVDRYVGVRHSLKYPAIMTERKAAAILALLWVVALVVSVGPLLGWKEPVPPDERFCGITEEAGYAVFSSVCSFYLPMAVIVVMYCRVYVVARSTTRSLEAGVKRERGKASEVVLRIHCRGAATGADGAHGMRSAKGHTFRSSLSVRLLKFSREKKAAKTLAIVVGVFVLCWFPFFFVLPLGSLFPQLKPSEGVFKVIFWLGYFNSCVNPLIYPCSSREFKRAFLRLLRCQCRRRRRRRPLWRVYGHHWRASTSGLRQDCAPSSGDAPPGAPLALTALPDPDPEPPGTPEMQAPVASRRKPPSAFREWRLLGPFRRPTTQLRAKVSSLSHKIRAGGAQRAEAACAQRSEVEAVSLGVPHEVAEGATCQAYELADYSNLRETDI
Method: Compounds of invention were incubated with 0.6 nM [^3H]Prozosin for 60 minutes at 25° C. Non-specific binding was estimated in the presence of 10 μM phentolamine. Receptor proteins were filtered and washed, the filters were then counted to determine [^3H]Prozosin specifically bound. […] Biochemical assay results are presented as the percent inhibition of specific binding in Table 6.

[3] = molecular target: T3, human recombinant adrenergic α2A receptor (Homo sapiens, UniProt P08913); assay: Adrenergic α2A radioligand binding ([3H]MK-912); set-up: Inhibition of ligand binding, Adren. alpha2A: concentration or dose not given beside the values; conditions: percent inhibition of specific binding
T3 construct: expressed in transfected cells; host or cells: insect Sf9 cells
T3 sequence (P08913 1-465): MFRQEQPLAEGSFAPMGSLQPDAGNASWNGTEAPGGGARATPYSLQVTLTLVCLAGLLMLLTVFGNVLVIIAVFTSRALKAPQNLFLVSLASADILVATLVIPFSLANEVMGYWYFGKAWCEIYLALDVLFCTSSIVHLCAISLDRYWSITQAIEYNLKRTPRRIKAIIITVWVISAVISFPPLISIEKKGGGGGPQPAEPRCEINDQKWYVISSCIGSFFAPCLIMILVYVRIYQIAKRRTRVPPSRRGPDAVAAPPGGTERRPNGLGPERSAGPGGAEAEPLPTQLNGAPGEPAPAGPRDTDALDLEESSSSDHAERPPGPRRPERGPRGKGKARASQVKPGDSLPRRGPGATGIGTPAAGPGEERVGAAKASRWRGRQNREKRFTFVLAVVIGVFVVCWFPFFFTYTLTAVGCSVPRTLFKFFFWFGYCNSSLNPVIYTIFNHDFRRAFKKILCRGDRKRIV
Outline: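 Membranes from Sf9 cells expressing the receptor were incubated with 1 nM [3H]MK-912 for 60 minutes at 25° C in 50 mM Tris-HCl pH 7.4, 12.5 mM MgCl2, 2 mM EDTA. 10 μM WB-4101 defined non-specific binding. Values are percent inhibition of specific bound radioactivity after filtration.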

[4] = molecular target: T4, human recombinant serotonin (5-Hydroxytryptamine) 5-HT6 receptor (Homo sapiens, UniProt P50406); assay: Serotonin 5-HT6 radioligand binding ([3H]LSD); set-up: Inhibition of ligand binding, Ser. 5-HT6: concentration or dose not given beside the values; conditions: percent inhibition of specific binding
T4 construct: expressed in transfected cells; host or cells: human HeLa cells
T4 sequence (P50406 whole entry): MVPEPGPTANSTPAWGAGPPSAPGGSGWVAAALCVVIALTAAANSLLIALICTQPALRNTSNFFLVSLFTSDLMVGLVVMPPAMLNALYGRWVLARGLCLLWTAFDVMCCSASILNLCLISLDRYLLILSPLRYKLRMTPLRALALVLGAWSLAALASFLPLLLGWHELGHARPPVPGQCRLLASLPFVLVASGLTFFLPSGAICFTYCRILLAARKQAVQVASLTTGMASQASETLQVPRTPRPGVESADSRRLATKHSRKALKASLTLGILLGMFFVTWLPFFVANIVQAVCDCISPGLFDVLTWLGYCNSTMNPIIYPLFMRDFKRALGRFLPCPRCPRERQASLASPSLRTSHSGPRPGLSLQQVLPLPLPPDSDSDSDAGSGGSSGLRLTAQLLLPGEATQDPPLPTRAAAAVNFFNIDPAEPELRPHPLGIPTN
Text: Receptor proteins were filtered and washed, the filters were then counted to determine [3H]LSD specifically bound. […] Biochemical assay results are presented as the percent inhibition of specific binding in Table 6.

[5] = molecular target: T5, human recombinant serotonin (5-Hydroxytryptamine) 5-HT2A receptor (Homo sapiens, UniProt P28223); assay: Serotonin 5-HT2A radioligand binding ([3H]Ketanserin); conditions: percent inhibition of specific binding
T5 construct: expressed in transfected cells; host or cells: CHO-K1 cells
T5 sequence (P28223 whole entry): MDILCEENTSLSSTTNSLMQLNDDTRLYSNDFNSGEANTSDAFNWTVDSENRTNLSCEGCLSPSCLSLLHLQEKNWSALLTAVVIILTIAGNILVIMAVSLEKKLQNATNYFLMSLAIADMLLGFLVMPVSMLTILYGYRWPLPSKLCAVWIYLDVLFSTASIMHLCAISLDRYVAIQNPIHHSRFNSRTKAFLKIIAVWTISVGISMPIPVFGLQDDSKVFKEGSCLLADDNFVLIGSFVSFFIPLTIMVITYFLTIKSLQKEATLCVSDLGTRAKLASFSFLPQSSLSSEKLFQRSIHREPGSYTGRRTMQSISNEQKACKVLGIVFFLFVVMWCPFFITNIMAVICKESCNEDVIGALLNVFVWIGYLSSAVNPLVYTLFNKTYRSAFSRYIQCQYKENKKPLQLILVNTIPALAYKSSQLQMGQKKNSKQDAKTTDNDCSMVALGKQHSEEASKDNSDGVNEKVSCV
Method: Compounds of the invention were incubated with 0.5 nM [^3H]Ketanserin for 60 minutes at 25° C. Non-specific binding was estimated in the presence of 1 μM Mianserin. Receptor proteins were filtered and washed, the filters were then counted to determine [^3H]Ketanserin specifically bound. […] Biochemical assay results are presented as the percent inhibition of specific binding in Table 6.

[6] = percent inhibition of specific binding, screened at 1 μM, read-out: Inhibition of ligand binding, Hist. H1
[7] = read-out: Histamine Binding H1, percent inhibition of specific binding

T1 sequence (P35367 whole entry): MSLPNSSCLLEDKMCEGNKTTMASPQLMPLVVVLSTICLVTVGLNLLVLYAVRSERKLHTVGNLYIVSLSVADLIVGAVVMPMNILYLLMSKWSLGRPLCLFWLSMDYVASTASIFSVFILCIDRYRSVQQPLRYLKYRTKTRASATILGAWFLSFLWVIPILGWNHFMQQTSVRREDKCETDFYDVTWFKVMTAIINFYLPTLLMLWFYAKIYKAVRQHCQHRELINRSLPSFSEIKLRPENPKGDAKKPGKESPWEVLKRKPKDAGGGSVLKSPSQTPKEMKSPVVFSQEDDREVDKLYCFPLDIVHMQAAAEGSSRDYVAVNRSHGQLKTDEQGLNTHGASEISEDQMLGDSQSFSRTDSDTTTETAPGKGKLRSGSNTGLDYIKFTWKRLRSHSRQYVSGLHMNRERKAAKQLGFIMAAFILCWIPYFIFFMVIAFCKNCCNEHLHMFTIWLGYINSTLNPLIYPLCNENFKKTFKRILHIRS

Row | SMILES | inhibition at 1 µM [1, 6] | Inhibition of ligand binding, Adren. alpha1D [2] | Inhibition of ligand binding, Adren. alpha2A [3] | Inhibition of ligand binding, Ser. 5-HT6 [4] | inhibition at 0.03 µM [1, 7] | inhibition at 0.1 µM [1, 7] | inhibition at 1 µM [1, 7] | inhibition at 1 µM ([1]; read-out: Inhibition of ligand binding, Hist. H1) | Inhibition of ligand binding, Ser. 5-HT2A [5]
1 | Cc1ccc(C(O)Cn2c3c(c4cc(C)ccc42)CN(C)CC3)cc1 (racemic) [Compound 28, racemic-2-(1,2,3,4-tetrahydro-2,8-dimethylpyrido[4,3-b]indol-5-yl)-1-p-tolylethanol] | 85% | 89% | 100% | 99% | – | – | – | – | –
2 | CN1CCc2c(c3ccccc3n2CCc2ccccc2)C1 [Compound 2, 2,3,4,5-tetrahydro-2-methyl-5-phenethyl-1H-pyrido[4,3-b]indole] | – | 72% | 94% | 95% | 31% | 54% | 87% | 87% | 96%
3 | Cc1ccc(CCn2c3c(c4cc(Cl)ccc42)CN(C)CC3)cc1 [Compound 43] | 110% | 98% | 100% | 102% | – | – | – | – | 99%
4 | CN1CCc2c(c3cc(Cl)ccc3n2CCc2ccc(Cl)cc2)C1 [Compound 45, 5-(4-chlorophenethyl)-8-chloro-2,3,4,5-tetrahydro-2-methyl-1H-pyrido[4,3-b]indole] | 103% | 92% | 100% | 103% | – | – | – | – | 100%
5 | Cc1ccc(CCn2c3c(c4cc(C(F)(F)F)ccc42)CN(C)CC3)cc1 [Compound 47] | 81% | 81% | 98% | 99% | – | – | – | – | 92%
6 | Cc1ccc2c(c1)c1c(n2CCc2ccc(C)nc2)CCN(C2CC2)C1 [Compound 51] | 94% | 22% | 26% | 6% | – | – | – | – | 0%
7 | Cc1ccc(CCn2c3c(c4cc(C(F)(F)F)ccc42)CN(C)CC3)cn1 [Compound 53] | 43% | 13% | 18% | 18% | – | – | – | – | −1%
8 | CN1CCc2c(c3cc(Cl)ccc3n2CCc2cccnc2)C1 [Compound 55] | 101% | 84% | 86% | 94% | – | – | – | – | 86%
9 | CN1CCc2c(c3cc(Cl)ccc3n2CCc2ccncc2)C1 [Compound 56] | 100% | 91% | 95% | 102% | – | – | – | – | 92%
10 | Cc1ccc2c(c1)c1c(n2CCc2cccnc2)CCN(C)C1 [Compound 60] | 101% | 82% | 84% | 91% | – | – | – | – | 84%
11 | Cc1ccc2c(c1)c1c(n2CCc2cnccn2)CCN(C)C1 [Compound 62] | 93% | 51% | 51% | 83% | – | – | – | – | 85%
12 | Cc1ccc2c(c1)c1c(n2CCc2ccc(C(F)(F)F)nc2)CCN(C)C1 [Compound 68] | 99% | 98% | 94% | 88% | – | – | – | – | 98%
13 | CN1CCc2c(c3cc(Cl)ccc3n2CCN2CCCCC2)C1 [Compound 189] | 94% | 28% | 76% | 66% | – | – | – | – | –
14 | CC(C)N1CCN(C(=O)Cn2c3c(c4cc(Cl)ccc42)CN(C)CC3)CC1 [Compound 248] | 85% | 26% | 27% | 67% | – | – | – | – | –
15 | CN1CCc2c(c3cc(F)ccc3n2CCc2ccc(Cl)cc2)C1 [Compound 249] | 100% | 65% | 97% | 101% | – | – | – | – | –
16 | Cc1ccc2c(c1)c1c(n2CC(=O)N2CCC(C)CC2)CCN(C)C1 [Compound 251] | 55% | 14% | 2% | 7% | – | – | – | – | –
17 | CN1CCc2c(c3cc(F)ccc3n2CCc2ccc(F)cc2)C1 [Compound 253] | 97% | 81% | 93% | 105% | – | – | – | – | –
18 | Cc1ccc2c(c1)c1c(n2CC(=O)N2CCCC2)CCN(C)C1 [Compound 257, 2-(1,2,3,4-tetrahydro-2,8-dimethylpyrido[4,3-b]indol-5-yl)-1-(pyrrolidin-1-yl)ethanone] | 64% | 3% | −4% | 2% | – | – | – | – | –
